Where “and” joins values, the source holds several entries; their conditions need not be identical. Equal entries are not always repeated.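 The compound was tested at five concentrations on cells cultured in 96-well plates, with a 48-hour exposure period. Here, GI50 denotes the concentration required for 50% inhibition of growth.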 Calls of active or inactive are those of the source. Rule as the data show it: active = GI50 up to about 1.1 µM and inactive = higher.
What was measured:
Test in all cases: inhibition of tumour cell growth, NCI panel, 48 h
SF-295 = test system: SF-295
DMS-273 = test system: DMS-273
MOLT-4 = test system: MOLT-4
SN12C = test system: SN12C
SNB-75 = test system: SNB-75
HCT-116 = test system: HCT-116
M19-MEL = test system: M19-MEL
DLD-1 = test system: DLD-1
HT-29 = test system: HT-29
SK-MEL-28 = test system: SK-MEL-28
UACC-62 = test system: UACC-62
NCI-H460 = test system: NCI-H460
NCI/ADR-RES = test system: NCI/ADR-RES
SF-268 = test system: SF-268
LOX IMVI = test system: LOX IMVI
U-251 = test system: U-251
KM12 = test system: KM12
HOP-92 = test system: HOP-92
SW-620 = test system: SW-620
SF-539 = test system: SF-539
SNB-78 = test system: SNB-78
HOP-62 = test system: HOP-62
A498 = test system: A498
SK-MEL-2 = test system: SK-MEL-2
CAKI-1 = test system: CAKI-1
HCC 2998 = test system: HCC 2998
RPMI-8226 = test system: RPMI-8226
MCF7 = test system: MCF7
HCT-15 = test system: HCT-15
NCI-H522 = test system: NCI-H522
SNB-19 = test system: SNB-19
A549 = test system: A549
OVCAR-8 = test system: OVCAR-8
NCI-H226 = test system: NCI-H226
Malme-3M = test system: Malme-3M
NCI-H23 = test system: NCI-H23
K562 = test system: K562
SK-OV-3 = test system: SK-OV-3
HL-60 = test system: HL-60
UACC-257 = test system: UACC-257
DMS-114 = test system: DMS-114
CCRF-CEM = test system: CCRF-CEM
IGROV-1 = test system: IGROV-1
SK-MEL-5 = test system: SK-MEL-5
UO-31 = test system: UO-31
OVCAR-3 = test system: OVCAR-3
KM-20L2 = test system: KM-20L2
HOP-18 = test system: HOP-18
RXF 393 = test system: RXF 393
OVCAR-4 = test system: OVCAR-4
COLO 205 = test system: COLO 205
XF498 = test system: XF498
OVCAR-5 = test system: OVCAR-5
EKVX = test system: EKVX
MDA-MB-231 = test system: MDA-MB-231
SR = test system: SR
PC-3 = test system: PC-3
DU-145 = test system: DU-145
TK-10 = test system: TK-10
Hs-578T = test system: Hs-578T
BT-549 = test system: BT-549
786-0 = test system: 786-0
T47D = test system: T47D
MDA-MB-435 = test system: MDA-MB-435

SMILES: C=C1C(=O)C[C@@]23CCC[C@@]12CC(OCOC)C3 (some centres undefined)
- GI50 (SF-295): 5300 nM (inactive)
- GI50 (DMS-273): 2400 nM (inactive)
- GI50 (MOLT-4): 2.5 µM (inactive)
- GI50 (SN12C): 1930 nM (inactive)
- GI50 (SNB-75): 2100 nM (inactive)
- GI50 (HCT-116): 2180 nM (inactive)
- GI50 (M19-MEL): 3590 nM (inactive)
- GI50 (DLD-1): 1840 nM (inactive)
- GI50 (HT-29): 1990 nM (inactive)
- GI50 (SK-MEL-28): 2690 nM (inactive)
- GI50 (UACC-62): 2610 nM (inactive)
- GI50 (NCI-H460): 2740 nM (inactive)
- GI50 (NCI/ADR-RES): 2110 nM (inactive)
- GI50 (SF-268): 4560 nM (inactive)
- GI50 (LOX IMVI): 1.61 µM (inactive)
- GI50 (U-251): 8470 nM (inactive)
- GI50 (KM12): 3.08 µM (inactive)
- GI50 (HOP-92): 2.32 µM (inactive)
- GI50 (SW-620): 2070 nM (inactive)
- GI50 (SF-539): 3.24 µM (inactive)
- GI50 (SNB-78): 4800 nM (inactive)
- GI50 (HOP-62): 12000 nM (inactive)
- GI50 (A498): 4.69 µM (inactive)
- GI50 (SK-MEL-2): 4.16 µM (inactive)
- GI50 (CAKI-1): 2300 nM (inactive)
- GI50 (HCC 2998): 6350 nM (inactive)
- GI50 (RPMI-8226): 2550 nM (inactive)
- GI50 (MCF7): 1830 nM (inactive)
- GI50 (HCT-15): 1360 nM
- GI50 (NCI-H522): 387 nM (active)
- GI50 (SNB-19): 14600 nM (inactive)
- GI50 (A549): 13500 nM (inactive)
- GI50 (OVCAR-8): 3090 nM (inactive)
- GI50 (NCI-H226): 2 µM (inactive)
- GI50 (Malme-3M): 2.84 µM (inactive)
- GI50 (NCI-H23): 3430 nM (inactive)
- GI50 (K562): 3120 nM (inactive)
- GI50 (SK-OV-3): 6.67 µM (inactive)
- GI50 (HL-60): 2.05 µM (inactive)
- GI50 (UACC-257): 2.5 µM (inactive)
- GI50 (DMS-114): 1910 nM (inactive)
- GI50 (CCRF-CEM): 1.62 µM (inactive)
- GI50 (IGROV-1): 1.85 µM (inactive)
- GI50 (SK-MEL-5): 3330 nM (inactive)
- GI50 (UO-31): 5460 nM (inactive)
- GI50 (OVCAR-3): 2.72 µM (inactive)
- GI50 (KM-20L2): 2830 nM (inactive)
- GI50 (HOP-18): 3600 nM (inactive)
- GI50 (RXF 393): 637 nM (active)
- GI50 (OVCAR-4): 2190 nM (inactive)
- GI50 (COLO 205): 3.8 µM (inactive)
- GI50 (XF498): 3120 nM (inactive)
- GI50 (OVCAR-5): 3.61 µM (inactive)
- GI50 (EKVX): 6.46 µM (inactive)

SMILES: N#Cc1cn(C2OC(CO)C(O)C2O)c2ncnc(N)c12 (centres undefined)
- GI50 (DMS-273): 40.9 nM (active)
- GI50 (MOLT-4): 23.9 nM (active) and 25.3 nM (active)
- GI50 (DLD-1): 45 nM (active)
- GI50 (MDA-MB-231): 15.8 nM (active)
- GI50 (LOX IMVI): 14.7 nM (active) and 24.9 nM (active)
- GI50 (KM12): 24.1 nM (active) and 44.4 nM (active)
- GI50 (HOP-92): 46.2 nM (active) and 76.6 nM (active)
- GI50 (SR): < 10 nM (active)
- GI50 (SF-539): 45.4 nM (active) and 76.4 nM (active)
- GI50 (SNB-78): 191 nM (active)
- GI50 (A498): 57.4 nM (active) and 114 nM (active)
- GI50 (SK-MEL-2): 18.2 nM (active) and 29.6 nM (active)
- GI50 (PC-3): 15 nM (active)
- GI50 (DU-145): 39.3 nM (active)
- GI50 (NCI-H226): 66.4 nM (active) and 66.2 nM (active)
- GI50 (TK-10): 14 nM (active)
- GI50 (Malme-3M): 39.9 nM (active) and 47.5 nM (active)
- GI50 (Hs-578T): 30.2 nM (active)
- GI50 (SK-OV-3): 26 nM (active) and 42.9 nM (active)
- GI50 (HL-60): < 10 nM (active) and < 13.8 nM (active)
- GI50 (BT-549): 57.7 nM (active)
- GI50 (UACC-257): 62.2 nM (active) and 81.8 nM (active)
- GI50 (CCRF-CEM): 16.1 nM (active) and 18 nM (active)
- GI50 (IGROV-1): 47.1 nM (active) and 23.8 nM (active)
- GI50 (786-0): 24.1 nM (active)
- GI50 (OVCAR-3): 25.4 nM (active) and 45 nM (active)
- GI50 (KM-20L2): 47.6 nM (active)
- GI50 (T47D): 19.9 nM (active)
- GI50 (MDA-MB-435): < 16.9 nM (active)
- GI50 (HOP-18): 109 nM (active)
- GI50 (RXF 393): 23.2 nM (active) and 21.7 nM (active)
- GI50 (COLO 205): 14.6 nM (active) and < 16.4 nM (active)
- GI50 (XF498): 4.14 nM (active)
- GI50 (OVCAR-5): 112 nM (active) and 81.7 nM (active)
- GI50 (EKVX): 60.3 nM (active) and 94.8 nM (active)

Source: ChEMBL document CHEMBL1201862, “PubChem BioAssay data set” (2004)
